Test results published in PMC10502087, “Fatty acid binding proteins are novel modulators of synaptic epoxyeicosatrienoic acid signaling in the brain” (Scientific Reports, 2023).
Where two headings read alike, the source gives them in different places.

Tests used:
FABP5 [1] = target: T1, FABP5 (Homo sapiens, UniProt Q01469); test: Fluorescent probe (DAUDA) displacement from purified FABP5; type: binding
Procedure: We first examined the binding of EETs (Fig. 1) to purified FABP3, FABP5, and FABP7 via fluorescent probe displacement assays as previously described[30],[31].
Affinities of each ligand were determined via fluorescent probe displacement from purified FABPs as previously described[30],[31],[47]. Ligands were incubated in assay buffer (30 mM Tris, 100 mM NaCl, pH 7.5) containing 3 μM purified FABPs, 500 nM DAUDA (for FABP3 and FABP5) or ANS (for FABP7). AA (10 μM) was included to account for maximal probe displacement.

FABP7 [2] = target: T2, FABP7 (Homo sapiens, UniProt O15540); test: Fluorescent probe (ANS) displacement from purified FABP7; type: binding
T2 sequence (O15540 whole entry): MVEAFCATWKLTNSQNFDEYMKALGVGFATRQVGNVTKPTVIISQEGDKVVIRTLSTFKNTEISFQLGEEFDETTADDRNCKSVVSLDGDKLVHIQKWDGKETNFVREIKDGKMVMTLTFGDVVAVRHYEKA
Description: (§1) We first examined the binding of EETs (Fig. 1) to purified FABP3, FABP5, and FABP7 via fluorescent probe displacement assays as previously described[30],[31]. 5,6-EET, 8,9-EET, 11,12-EET, and 14,15-EET bound to all three FABPs with distinct selectivity. […] Similarly, 11,12-EET emerged as the preferred ligand for FABP5 followed by 8,9-EET, 5,6-EET, and 14,15-EET (Fig. 2A, Table 1). For FABP7, 11,12-EET bound with highest affinity while interactions of the remaining EETs were considerably weaker.
(§2) Affinities of each ligand were determined via fluorescent probe displacement from purified FABPs as previously described[30],[31],[47]. Ligands were incubated in assay buffer (30 mM Tris, 100 mM NaCl, pH 7.5) containing 3 μM purified FABPs, 500 nM DAUDA (for FABP3 and FABP5) or ANS (for FABP7). AA (10 μM) was included to account for maximal probe displacement. The fluorescence signal was quantified on a F5 Filtermax Multi-Mode Microplate Reader (Molecular Devices) with the excitation and emission wavelengths set at 360/535 nm for DAUDA and 360/465 nm for ANS. After background subtraction, normalized fluorescence values were fit to a one-site binding model using GraphPad Prism (v 9.5) and Ki values were determined using the following equation: Ki = IC50/(1 + ([Probe]/Kd).

FABP3 = FABP3 (Homo sapiens, UniProt P05413); test: Fluorescent probe (DAUDA) displacement from purified FABP3; type: binding
FABP3, sequence (P05413 whole entry): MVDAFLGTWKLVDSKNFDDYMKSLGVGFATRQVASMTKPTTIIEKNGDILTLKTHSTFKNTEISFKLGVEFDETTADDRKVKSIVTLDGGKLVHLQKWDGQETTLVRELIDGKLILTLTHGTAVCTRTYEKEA
Description: as §1, §2

[3] = system: CA1 pyramidal neuron glutamate synapses; parameters: method as in PMID 28526610, PMID 29138698; details: previous studies; cited from earlier work
FABP7 [4] = target: T2, FABP7; parameters: method as in PMID 8798739, PMID 8608126; details: cited from earlier work
FABP5 [5] = target: T1, FABP5; parameters: method as in PMID 8798739, PMID 8608126; details: cited from earlier work
[6] = system: CA1 pyramidal neuron glutamate synapses; test: Ex vivo whole-cell recordings of evoked EPSCs in hippocampal slices; type: cell-based, C57Bl/6 mice
Procedure: Mice were deeply anesthetized with isoflurane and decapitated. Coronal brain slices (350 μm thick) containing the hippocampus were cut using a vibratome Leica VT 1200 (Leica, CA) in a modified ice-cold […] artificial cerebrospinal fluid (ACSF) composed in mM: 110 mM choline-Cl, 2.5 mM KCl, 0.5 mM CaCl2, 7 mM MgSO4, 1.25 mM NaH2PO4, 26.2 mM NaHCO3, 11.6 mM sodium L-ascorbate, 3.1 mM sodium pyruvate, and 25 mM glucose, and equilibrated with 95% O2 and 5% CO2. Hippocampal slices were first transferred to a chamber with the same cutting solution at 35 °C for 15 min and then to a standard ACSF in mM: 119 mM NaCl, 2.5 mM CaCl2, 1.3 mM MgSO4, 1 mM NaH2PO4, 26.2 mM NaHCO3, and 11 mM glucose continuously bubbled with a mixture of 95% O2 and 5% CO2 for additional 45 min at 35 °C. Slices were allowed to recover at room temperature (≥ 1 h). After recovery, individual slice was transferred to a recording chamber, continuously perfused with standard ACSF containing 0.01% DMSO saturated with 95% O2 and 5% CO2, and warmed at 30 °C.
Hippocampal CA1 pyramidal neurons were visualized using an upright microscope (BX 51 WI; Olympus, Tokyo, Japan) and somatic whole-cell recordings were obtained from pyramidal neurons using glass pipette electrodes with 3–5 MΩ resistance when filled with an internal solution containing: 120 mM potassium gluconate, 10 mM KCl, 10 mM Na2-phosphocreatine, 10 mM HEPES, 1 mM MgCl2, 1 mM EGTA, 2 mM Na2-ATP, 0.25 mM Na-GTP (pH 7.3 adjusted with KOH; osmolarity, 280–290 mOsmol/l). All recordings were performed in the presence of the GABA A receptor antagonist picrotoxin (100 μM). Excitatory postsynaptic currents (EPSCs) were evoked with electrical pulses (5–20 V, 100–200 μs) delivered at 0.1 Hz using glass microelectrode placed in the […] in CA1 pyramidal neurons voltage-clamped at − 70 mV. All recorded currents were amplified with an a Multiclamp 700B amplifier (Molecular Devices, Sunnyvale, CA), filtered at 3 kHz, digitized at 20 kHz with Digidata 1200 (Molecular Devices), and acquired using the pClamp 10.7 software (Molecular Devices, Sunnyvale, CA). To examine the impact of TPPU on the amplitude of evoked EPSCs, at least 10–20 min of stable baseline recordings were obtained and TPPU was perfused to the brain slices (final DMSO concentration of 0.01%).
For the analysis of the electrophysiology data, the amplitude of evoked EPSCs (eEPSC) was determined by measuring the average current during a 2-ms period at the peak of each eEPSC and subtracted from the average baseline current determined during a 5-ms window taken before the stimulus artifact. All eEPSC amplitudes were normalized to the mean baseline amplitude recorded for at least 10 min before drug application. All the data are represented as the mean ± SE and were not transformed.

[7] = mean ± S.E., n = 4, Table 1, read-out: Ki FABP5

T1 sequence (Q01469 whole entry): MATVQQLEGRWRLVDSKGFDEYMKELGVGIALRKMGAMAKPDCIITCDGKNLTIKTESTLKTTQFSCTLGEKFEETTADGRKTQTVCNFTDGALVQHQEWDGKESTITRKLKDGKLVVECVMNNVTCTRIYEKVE

| Ki (FABP5 [1]; [7]) | Ki (FABP7 [2]; mean ± S.E., n = 4, Table 1) | Ki (FABP3; mean ± S.E., n = 4, Table 1) | Compound | further results |
| --- | --- | --- | --- | --- |
| 3.57 ± 0.28 µM | 4.3 ± 0.29 µM | 1.44 ± 0.12 µM | CCCCC/C=C\C/C=C\C/C=C\C[C@H]1O[C@H]1CCCC(=O)O [5,6-EET] |  |
| 1.87 ± 0.21 µM | 3.16 ± 0.3 µM | 0.17 ± 0.02 µM | CCCCC/C=C\C/C=C\C[C@H]1O[C@H]1C/C=C\CCCC(=O)O [8,9-EET] |  |
| 0.52 ± 0.07 µM | 1.13 ± 0.11 µM | 0.2 ± 0.03 µM | CCCCC/C=C\C[C@H]1O[C@H]1C/C=C\C/C=C\CCCC(=O)O [11,12-EET] | Effect on hippocampal glutamate synapses [3]: depresses |
| 5.56 ± 0.48 µM | 3.74 ± 0.12 µM | 0.65 ± 0.08 µM | CCCCC[C@H]1O[C@H]1C/C=C\C/C=C\C/C=C\CCCC(=O)O [14,15-EET] | Effect on hippocampal glutamate synapses [3]: potentiates |
|  | 29.9 ± 5.64 µM | 1.22 ± 0.14 µM | CCCCCC=CC=C1C(=O)C=CC1CC=CCCCC(=O)O (stereo not shown) [15d-PGJ2, 15-deoxy-Δ^12,14-Prostaglandin J2] | Ki (FABP5 [1]): 12.3 ± 1.54 µM |
| 3.2 ± 0.19 µM | > 50 µM | 1.37 ± 0.12 µM | CCCCCCCC/C=C\CCCCCCCC(=O)OC[C@H](O)COP(=O)(O)O [LPA, oleoyl lysophosphatidic acid] |  |
| > 50 µM | > 50 µM | > 50 µM | CCCCC[C@H](O)/C=C/[C@H]1[C@H](O)CC(=O)[C@@H]1C/C=C\CCCC(=O)O [PGE2, prostaglandin E2] | Affinity for FABP7 (FABP7 [4]): does not display appreciable affinity; Affinity for FABP5 (FABP5 [5]): does not display appreciable affinity |
| > 50 µM | > 50 µM | > 50 µM | CCCCCC(O)C=CC1C(O)CC(=O)C1CC=CCCCC(=O)OCC(O)CO (stereo not shown) [PGE2-GE, prostaglandin E2 glyceryl ester] |  |
| > 50 µM | > 50 µM | > 50 µM | CCCCCC(O)C=CC1C(O)CC(O)C1CC=CCCCC(=O)NCCO (stereo not drawn) [PGF2α-EA, prostamide F2α] |  |
| > 50 µM | > 50 µM | > 50 µM | CCCCC[C@H](O)/C=C/[C@@H]1[C@@H](C/C=C\CCCC(=O)O)[C@@H](O)C[C@H]1O [PGF2α] |  |
|  |  |  | O=C(O)C1[C@H](c2ccccc2)C(C(=O)Oc2cccc3ccccc23)[C@H]1c1ccccc1 (stereo partly shown) [SBFI-26] | Ki (FABP7 [2]; inhibitors, Table 3): 0.45 ± 0.07 µM; Ki (FABP3; inhibitors, Table 3): 2.7 ± 0.42 µM; Effect on TPPU-induced potentiation of eEPSCs ([6]; inhibitor 10 µM with TPPU 10 µM, hippocampal slices): significantly reduced |
|  |  |  | CCC(=O)N1CCC(NC(=O)Nc2ccc(OC(F)(F)F)cc2)CC1 [TPPU] | CA1 pyramidal neurons showing depression of eEPSC amplitude ([6]; TPPU 10 µM): 41%; CA1 pyramidal neurons showing potentiation of eEPSC amplitude ([6]; TPPU 10 µM): 47%; Coefficient of variation (CV) during depression of EPSCs ([6]; TPPU 10 µM vs baseline, n = 5, p = 0.086): not accompanied with significant changes; Paired pulse ratio (PPR) during depression of EPSCs ([6]; TPPU 10 µM vs baseline, n = 5, p = 0.108): not accompanied with significant changes; Coefficient of variation (CV) during potentiation of eEPSCs ([6]; TPPU 10 µM vs baseline, n = 7, p = 0.0017): significant decrease; Paired pulse ratio (PPR) during potentiation of eEPSCs ([6]; TPPU 10 µM vs baseline, n = 7, p = 0.042): significant decrease |
